Patent US20260174682A1, “GAMMA-AMINOBUTYRIC ACID DERIVATIVE COMPRISING POLYCYCLIC STRUCTURE, METHOD FOR PREPARING SAME, AND USE THEREOF” (ZHONGSHAN INSTITUTE FOR DRUG DISCOVERY, SIMM, CAS., priority 2022, published 2026)
Marks after values point to notes of the source that are not given here.

Tests used:
[1] = target: T1, human recombinant calcium ion channel Cav2.2/β3/α2δ-1 (Homo sapiens, UniProt P54289); assay: In vitro binding to human recombinant calcium ion channel Cav2.2/β3/α2δ-1 ([3H]gabapentin competition); conditions: inhibition of binding of 5 nM [3H]gabapentin, CHO cell membranes, 25° C., 120 min; read-out: IC50
T1 construct: expressed in transfected cells; host or cells: CHO cells (membranes)
T1 sequence (P54289 25-956 limits assumed): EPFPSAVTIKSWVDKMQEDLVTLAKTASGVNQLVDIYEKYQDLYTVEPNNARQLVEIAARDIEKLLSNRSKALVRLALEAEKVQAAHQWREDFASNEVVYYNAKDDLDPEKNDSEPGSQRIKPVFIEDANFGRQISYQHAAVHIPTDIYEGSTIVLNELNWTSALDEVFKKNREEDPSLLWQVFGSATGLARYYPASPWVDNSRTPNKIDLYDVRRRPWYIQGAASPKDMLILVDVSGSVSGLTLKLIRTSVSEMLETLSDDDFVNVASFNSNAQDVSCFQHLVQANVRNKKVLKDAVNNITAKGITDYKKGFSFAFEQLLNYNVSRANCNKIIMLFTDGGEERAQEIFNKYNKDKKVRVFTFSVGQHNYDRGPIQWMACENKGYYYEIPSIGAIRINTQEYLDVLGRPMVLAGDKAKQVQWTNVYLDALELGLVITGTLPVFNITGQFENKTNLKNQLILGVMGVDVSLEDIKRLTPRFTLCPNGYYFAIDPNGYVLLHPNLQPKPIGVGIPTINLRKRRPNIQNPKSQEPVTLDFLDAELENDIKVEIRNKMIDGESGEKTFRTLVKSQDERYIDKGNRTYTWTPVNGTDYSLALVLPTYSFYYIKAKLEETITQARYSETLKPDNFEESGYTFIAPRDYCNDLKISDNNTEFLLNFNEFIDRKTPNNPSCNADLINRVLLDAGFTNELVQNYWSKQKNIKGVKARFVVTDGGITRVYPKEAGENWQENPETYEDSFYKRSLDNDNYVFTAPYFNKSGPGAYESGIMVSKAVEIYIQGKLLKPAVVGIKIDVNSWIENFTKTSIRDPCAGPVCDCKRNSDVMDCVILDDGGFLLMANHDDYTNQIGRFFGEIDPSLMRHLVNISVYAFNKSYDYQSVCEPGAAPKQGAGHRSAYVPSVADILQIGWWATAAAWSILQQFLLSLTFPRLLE
T1 sequence (P54289 957-1103 partner limits assumed): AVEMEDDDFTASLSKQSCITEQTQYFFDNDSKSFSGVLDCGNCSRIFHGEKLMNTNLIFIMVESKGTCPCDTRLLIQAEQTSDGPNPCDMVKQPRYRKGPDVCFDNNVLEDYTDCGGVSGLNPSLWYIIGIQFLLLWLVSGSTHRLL
T1 sequence (Q00975 whole entry partner): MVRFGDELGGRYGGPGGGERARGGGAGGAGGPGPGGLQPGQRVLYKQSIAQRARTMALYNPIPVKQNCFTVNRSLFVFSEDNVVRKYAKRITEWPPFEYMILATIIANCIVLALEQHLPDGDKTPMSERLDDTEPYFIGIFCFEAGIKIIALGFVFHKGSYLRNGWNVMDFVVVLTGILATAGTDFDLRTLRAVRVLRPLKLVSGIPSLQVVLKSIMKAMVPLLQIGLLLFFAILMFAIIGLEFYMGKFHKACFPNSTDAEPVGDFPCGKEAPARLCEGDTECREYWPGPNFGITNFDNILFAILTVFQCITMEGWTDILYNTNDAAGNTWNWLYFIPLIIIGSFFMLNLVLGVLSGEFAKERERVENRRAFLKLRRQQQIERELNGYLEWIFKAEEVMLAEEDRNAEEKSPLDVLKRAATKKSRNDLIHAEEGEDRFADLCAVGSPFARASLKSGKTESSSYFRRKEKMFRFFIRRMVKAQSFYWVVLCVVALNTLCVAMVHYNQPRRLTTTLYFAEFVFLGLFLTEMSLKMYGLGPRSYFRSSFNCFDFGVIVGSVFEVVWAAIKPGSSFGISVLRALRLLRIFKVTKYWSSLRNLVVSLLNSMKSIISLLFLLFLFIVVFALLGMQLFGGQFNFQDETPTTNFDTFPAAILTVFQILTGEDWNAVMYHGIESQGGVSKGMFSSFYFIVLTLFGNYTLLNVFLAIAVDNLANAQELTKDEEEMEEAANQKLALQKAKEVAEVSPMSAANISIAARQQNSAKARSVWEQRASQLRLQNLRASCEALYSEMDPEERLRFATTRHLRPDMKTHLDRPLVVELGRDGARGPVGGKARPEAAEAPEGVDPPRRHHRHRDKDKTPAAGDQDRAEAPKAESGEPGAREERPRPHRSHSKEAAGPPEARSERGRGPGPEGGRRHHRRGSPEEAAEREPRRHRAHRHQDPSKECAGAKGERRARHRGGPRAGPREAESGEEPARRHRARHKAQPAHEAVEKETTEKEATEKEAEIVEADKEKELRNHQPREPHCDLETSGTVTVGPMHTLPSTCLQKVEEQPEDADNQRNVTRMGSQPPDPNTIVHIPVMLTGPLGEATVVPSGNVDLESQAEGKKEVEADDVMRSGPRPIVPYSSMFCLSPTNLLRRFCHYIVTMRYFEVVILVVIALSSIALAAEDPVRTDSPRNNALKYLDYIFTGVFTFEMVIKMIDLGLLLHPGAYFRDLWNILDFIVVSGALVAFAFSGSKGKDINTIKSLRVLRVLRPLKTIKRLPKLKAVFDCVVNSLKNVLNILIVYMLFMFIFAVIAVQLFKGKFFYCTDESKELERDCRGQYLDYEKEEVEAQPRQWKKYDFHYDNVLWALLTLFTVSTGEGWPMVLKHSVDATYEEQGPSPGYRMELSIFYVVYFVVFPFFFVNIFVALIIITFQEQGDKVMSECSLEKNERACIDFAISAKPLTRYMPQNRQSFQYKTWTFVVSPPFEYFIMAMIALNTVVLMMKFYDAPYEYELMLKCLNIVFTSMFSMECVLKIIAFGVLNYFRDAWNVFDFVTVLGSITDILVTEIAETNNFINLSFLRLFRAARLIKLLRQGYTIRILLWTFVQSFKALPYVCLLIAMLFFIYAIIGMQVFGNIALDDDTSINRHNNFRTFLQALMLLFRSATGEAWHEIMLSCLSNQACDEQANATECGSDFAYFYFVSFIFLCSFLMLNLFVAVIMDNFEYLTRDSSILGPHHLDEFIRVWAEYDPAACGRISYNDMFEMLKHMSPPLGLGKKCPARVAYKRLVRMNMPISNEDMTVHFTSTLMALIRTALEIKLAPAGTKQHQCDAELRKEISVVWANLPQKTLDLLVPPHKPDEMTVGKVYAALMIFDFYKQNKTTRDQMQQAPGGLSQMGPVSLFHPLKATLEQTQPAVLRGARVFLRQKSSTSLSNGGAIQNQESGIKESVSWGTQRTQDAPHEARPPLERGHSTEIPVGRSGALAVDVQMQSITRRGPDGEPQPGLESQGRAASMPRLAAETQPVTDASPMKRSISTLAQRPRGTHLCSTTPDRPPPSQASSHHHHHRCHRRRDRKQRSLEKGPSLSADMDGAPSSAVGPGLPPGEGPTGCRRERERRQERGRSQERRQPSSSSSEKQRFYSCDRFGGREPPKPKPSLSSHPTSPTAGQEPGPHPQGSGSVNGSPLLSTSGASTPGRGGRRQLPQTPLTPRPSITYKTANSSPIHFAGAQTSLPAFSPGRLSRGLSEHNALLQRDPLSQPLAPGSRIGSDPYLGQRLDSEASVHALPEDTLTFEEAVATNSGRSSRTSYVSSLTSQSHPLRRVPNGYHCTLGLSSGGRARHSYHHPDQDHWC
T1 sequence (P54284 whole entry partner): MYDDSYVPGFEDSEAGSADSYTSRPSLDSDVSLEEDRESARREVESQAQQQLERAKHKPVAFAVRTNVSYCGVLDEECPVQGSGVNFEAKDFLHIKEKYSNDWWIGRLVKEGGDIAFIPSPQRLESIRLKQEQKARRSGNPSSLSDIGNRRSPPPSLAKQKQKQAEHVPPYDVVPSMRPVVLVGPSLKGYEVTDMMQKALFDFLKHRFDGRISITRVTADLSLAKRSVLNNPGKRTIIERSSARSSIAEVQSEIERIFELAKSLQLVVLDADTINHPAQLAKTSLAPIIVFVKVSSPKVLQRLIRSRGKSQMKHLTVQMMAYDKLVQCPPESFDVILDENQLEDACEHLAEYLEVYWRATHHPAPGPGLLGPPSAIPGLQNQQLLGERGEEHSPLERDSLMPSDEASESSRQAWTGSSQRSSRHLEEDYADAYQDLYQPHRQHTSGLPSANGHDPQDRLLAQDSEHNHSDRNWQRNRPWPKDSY
Description: Example 28 In Vitro Binding of Compounds to Human Recombinant Calcium Ion Channel Cav2.2/β3/α2δ-1
There are four subtypes of the voltage-gated calcium ion channel α2δ subunit, α2δ-1, α2δ-2, α2δ-3 and α2δ-4, in which α2δ-1 is the subtype that mediates chronic neuropathic pain (Field, M. J. et al.; Proc. Natl. Acad. Sci. U.S.A. 2006, 103, 17537-17542). Therefore, the binding strength of a compound to α2δ-1 is a direct indicator for measuring an analgesic effect thereof on the chronic neuropathic pain (Calandre, E. P. et al.; Expert Rev. Neuroether. 2016, 16, 1263-1277).
The in vitro binding strength of the compound of the present application to human recombinant calcium ion channel Cav2.2/β3/α2δ-1 is basically operated according to a reported method (Gee, N. S. et al.; J. Biol. Chem. 1996, 271, 5768-5776; Marais, E. et al.; Mol. Pharmacol. 2001, 59, 1243-1248). CHO cells expressing the human recombinant calcium ion channel Cav2.2/β3/α2δ-1 were used in the test. After routine separation of cell membranes, 3 μg of the cell membranes were added into each well with a modified HEPES/KOH buffer solution (pH 7.4) as a solution of the test system. Then, 5 nM [^3H]gabapentin and the compound to be tested at 6 concentrations (3, 9, 27, 81, 243, and 729 nM) were added, and the test system was incubated at 25° C. for 120 min. Non-specific binding was obtained by replacing the compound to be tested in the above test system with […] gabapentin. After the incubation was completed, the cell membranes were collected by filtration and washed with 50 mM Tris-HCl (pH 7.4), and then the radioactivity of [^3H]gabapentin bound to the cell membranes was tested by a liquid scintillation technology. […] An inhibition rate of the compound of the present application on the binding of the [^3H]gabapentin to the human recombinant calcium ion channel Cav2.2/β3/α2δ-1 was calculated according to the following formula: […]
wherein • I is the radioactivity corresponding to that the compound to be tested and [^3H]gabapentin are simultaneously co-incubated with the human recombinant calcium ion channel Cav2.2/β3/α2δ-1, • I0 is the radioactivity corresponding to co-incubation of [^3H]gabapentin and the human recombinant calcium ion channel Cav2.2/β3/α2δ-1 without adding the compound to be tested into the incubation system, and • IU is the radioactivity corresponding to that 10 μM gabapentin and [^3H]gabapentin are simultaneously co-incubated with the human recombinant calcium ion channel Cav2.2/β3/α2δ-1.
The concentration of the compound to be tested that inhibits 50% of the binding of [^3H]gabapentin to the human recombinant calcium ion channel Cav2.2/β3/α2δ-1 is defined as IC50, and the IC50 is calculated by nonlinear least squares regression analysis using the above inhibition rate (MathIQ™, ID Business Solutions Ltd., UK).

[2] = test system: Sprague Dawley (SD) rat spared nerve injury (SNI) model; assay: Analgesic effect in rat spared nerve injury (SNI) chronic neuropathic pain model; type: in vivo; conditions: SNI rats; for area under the mechanical pain threshold-time curve compared with the vehicle control group / maximum possible effect (% MPE): oral gavage 30 mg/kg (calculated by free base); for maximum possible effect (% MPE) / maximum possible effect (MPE): from AUC of mechanical pain threshold-time curve to 24 h; for maximum possible effect (MPE): oral gavage 10 mg/kg (calculated by free base)
Procedure: Establishment of the SNI model: Surgery was performed according to an aseptic operation method, and various surgical instruments, including scalpels, tweezers, suture needles/threads, surgical cotton, etc., were disinfected before the surgery. Animals were anesthetized by intraperitoneal injection of a Zoletil™ 50 solution at 50 mg/kg and then placed in lateral decubitus positions. After hair in surgical areas of lower bodies of animals was shaved, the animals were disinfected alternately with iodophor and 75% alcohol. The skin was cut at upper edges of left hind limbs, muscles were bluntly separated to expose a sciatic nerve trunk and 3 branches thereof, i.e., a tibial nerve, a common peroneal nerve and a sural nerve. The tibial nerve and the common peroneal nerve were ligated and cut, and the sural nerve was preserved and maintained intact. After the surgery, wounds were sutured layer by layer, the animals were administered with 25% ampicillin (1 mL/kg) through intraperitoneal injection to prevent infection, and routine nursing was performed. In sham group, only the sciatic nerve and the branches thereof were exposed, the nerves were not ligated and cut, and other operations were the same as those in the model group. Detection of a mechanical pain threshold: A Von-frey test fiber was used to detect the mechanical pain threshold of the sole of an operative side of each animal on day 1, day 3 and day 7 after the surgery, respectively. An “up-and-down” method was used as a method of detecting the mechanical pain threshold at the stimulation intensity of 0.4, 0.6, 1, 2, 4, 6, 8, and 15 g. During the test, the test fiber was used to vertically stimulate the site, close to an outer side, in the sole center of the left hind paw of a rat for 6-8 seconds each time at an interval of 5 seconds. A pain response was shown as an obvious paw withdrawal, paw licking, or paw lifting behavior of the animals during each test. From day 11 after the surgery, the animals were placed in an experimental environment for adaptation, wherein the adaptation was performed continuously for 15 min per day for 3 days. On day 13, a basic value of mechanical pain hypersensitivity was detected after the adaptation was completed. The mechanical pain hypersensitivity was expressed by a 50% paw-withdrawal threshold (PWT) according to a calculation formula of 50% PWT (g)=10^xf+kδ, wherein xf is a log value of a fiber test force, k is a tabular value, and δ is an average spacing of the log value of the fiber test force.
Pharmacodynamic evaluation: According to basic threshold detection results on day 13 after the surgery, the animals in the model group without the mechanical pain hypersensitivity, that is, the PWT was greater than 4 g, were excluded, and the other successfully modeled animals were used for a formal test. On day 14 after the surgery, various compound to be tested were newly formulated. Pregabalin was directly dissolved with 0.9% sodium chloride at a dose of 30 mg/kg to obtain a solution at a desired concentration. (±)—I-7, (±)—I-3 and (±)—I-4 p-toluenesulfonate were also completely dissolved with a 0.9% sodium chloride solution at a dose of 30 mg/kg (calculated by free base). The successfully modeled animals were randomly divided into 5 groups with 8 animals in each group. In addition, 7 animals were selected in the sham group. […] The mechanical pain hypersensitivity response of the left hind paw was detected at 1 h, 2 h, 4 h, 6 h, 8 h, 10 h, and 24 h after the administration. Evaluation was performed by using a blind method, and a detection method was the same as above. An area under a mechanical pain threshold-time curve (AUC) was calculated using GraphPad Prism Version 8.0.1 software.

[3] = test system: mouse 6-Hz psychomotor seizure model; assay: Antiepileptic effect in mouse 6-Hz psychomotor seizure model; type: in vivo; conditions: 6-Hz model, C57BL/6 mice, gavage, dose 200 mg/kg
Procedure: A negative vehicle control group, a positive drug control group (pregabalin and gabapentin) and a test group of the compounds of the present application were set. Male C57BL/6 mice with a body weight of 20±2 g were selected. […] After fasted for 12 h, the mice were administered the compounds of the present application or the control drugs, and then subjected to 6-Hz electrical stimulation to induce epilepsy seizure behaviors after a certain time interval (2 h for pregabalin, 1 h for gabapentin, 1 h for levetiracetam, and 3 h for the compounds of the present application). In an induction model, when the stimulation was performed with a Model 4100 stimulator (A-M Systems, the United States), rear necks of the mice were immobilized by hands on a feeding cage, a corneal electrode was moisten with normal saline and allowed to gently contact bilateral corneas of the mice, the electrical stimulator was trod by a foot to give the mice the electrical stimulation with a stimulation parameter of 6-Hz, a one-way square wave of 32 mA, a wave width of 0.2 ms and a stimulation duration of 3 sec, and timing was performed with a stopwatch during the stimulation. After the electrical stimulation was completed, the mice with the seizure behaviors lasting for less than 7 sec were regarded as being protected by the drugs, and the mice with the seizure behaviors lasting for more than 7 sec were regarded as being not protected from the epilepsy by the drugs. Response situations of the animals were observed and recorded, and obtained data were counted to calculate protection rates of the compounds.
Statistical method: The protection rates of different administration groups were separately compared with that of the vehicle control group to carry out a Fisher's exact test.

male SD rats = assay: Acute toxicity test on rats; conditions: oral gavage 300 mg/kg (calculated by free base)
Procedure: After adapting to the environment for one week, the SD rats were used in a preliminary acute toxicity test. The compounds were newly formulated on the day of the test. […] After being labeled and weighed, the animals were randomly grouped with 2-4 animals in each group. […] Clinical symptoms of each animal were observed and recorded at 0.5 hours, 1 hour, 2 hours, 4 hours, 6 hours and 24 hours after the administration, respectively. Clinical symptom codes were as follows: 0 no abnormality, 1 mild tremor, 2 unsteady gait, 3 prone position, 4 startle reflex, 5 difficult breathing, 6 righting reflex disappeared, 7 eyelid closure, 8 shortness of breath, and x animal death.

Row | Structure (SMILES) | IC50 [1] | further results
1 | CC1=C(C)C2(C)C3C(CC3(CN)CC(=O)O)C1(C)C2C (racemic) [(±)-I-8] | > 729 nM | –
2 | Cc1ccc(S(=O)(=O)O)cc1.NCC1(CC(=O)O)CC2C3C=CC(C3)C21 (racemic) [(±)-I-4 p-toluenesulfonate] | – | area under the mechanical pain threshold-time curve compared with the vehicle control group [2]: significantly improved; maximum possible effect (% MPE) [2]: 95.95%
3 | Cc1ccc(S(=O)(=O)O)cc1.NCC1(CC(=O)O)CC2C3CCC(C3)C21 (single isomer, unassigned; (-)) [(−)-I-3 p-toluenesulfonate] | > 243 nM | maximum possible effect (MPE) [2]: 30.22%
4 | CC1C2CC[C@@H]1[C@H]1C2CC1(CN)CC(=O)O (mixture of isomers) [(±)-I-16] | 477 nM | –
5 | CC1=C(C)C2(C)CC1(C)C1CC(CN)(CC(=O)O)C12 (racemic) [(±)-I-18] | > 729 nM | –
6 | NCC1(CC(=O)O)CC2C3C=CC(CC3)C21 (racemic) [(±)-I-6 p-toluenesulfonate] | 300 nM | –
7 | NCC1(CC(=O)O)CC2C3CCC(C3)C21 (racemic) [(±)-I-1] | > 729 nM | –
8 | NCC1(CC(=O)O)CC2C1C1CCC2C12CC2 (racemic) [(±)-I-10] | > 729 nM | –
9 | NCC1(CC(=O)O)CC2C1C1C=CC2C12CC2 (racemic) [(±)-I-9 p-toluenesulfonate] | > 729 nM | –
10 | NCC1(CC(=O)O)CC2C3CCC(C3)C21 (racemic) [(±)-I-12] | > 729 nM | –
11 | CC[C@@H](C(N)=O)N1CCCC1=O [Levetiracetam] | – | Number of animals with clonic seizures/total number [3]: 3/11**; Protection rate (%) [3]: 72.7 *** %
12 | NCC1(CC(=O)O)CC2C3CC[C@@H](C3)[C@@H]21 (mixture of isomers) [(±)-I-3] | 15.2 nM | maximum possible effect (% MPE) [2]: 44.80%
13 | NCC1(CC(=O)O)CC2C3CCC(CC3)C21 (racemic) [(±)-I-5] | 450 nM | –
14 | NCC1(CC(=O)O)C[C@@H]2C1C1C=C[C@H]2C1 (mixture of isomers) [(±)-I-2] | 470 nM | –
15 | CC1=C(C)C2(C)C3C(CC3(CN)CC(=O)O)C1(C)C2(C)C (racemic) [(±)-I-19] | > 729 nM | –
16 | NCC1(CC(=O)O)CC2C3C=CC(C3)C21 (racemic) [(±)-I-11 p-toluenesulfonate] | > 729 nM | –
17 | CC1(C)C2C=CC1C1C2CC1(CN)CC(=O)O (racemic) [(±)-I-15 p-toluenesulfonate] | 580 nM | –
18 | NCC1(CC(=O)O)CC2C3C=CC(C3)C21 (single isomer, unassigned; (-)) [(−)-I-4 p-toluenesulfonate] | > 243 nM | maximum possible effect (MPE) [2]: 18.53%
19 | NCC1(CC(=O)O)CC2C3C[C@H]([C@H]4C[C@H]34)[C@@H]21 (mixture of isomers) [(±)-I-7] | 70 nM | animal death (male SD rats): no animals are dead; Observation of clinical symptoms 0.5 h (male SD rats; per animal): 0; Observation of clinical symptoms 2 h (male SD rats; per animal): 3; Observation of clinical symptoms 4 h (male SD rats; per animal): 0; Observation of clinical symptoms 6 h (male SD rats; per animal): 0; Observation of clinical symptoms 24 h (male SD rats; per animal): 0; Observation of clinical symptoms 1 h (male SD rats; per animal, 300 mg/kg): 3; area under the mechanical pain threshold-time curve compared with the vehicle control group [2]: significantly improved; maximum possible effect (% MPE) [2]: 73.63%
20 | CC1C2C=CC1C1C2CC1(CN)CC(=O)O (racemic) [(±)-I-17 p-toluenesulfonate] | 453 nM | –
21 | CC1(C)C2CC[C@@H]1[C@H]1C2CC1(CN)CC(=O)O (mixture of isomers) [(±)-I-14] | 600 nM | –
